Data: patent publication US5032576A, “Method for controlling female moths using a peptide” (The United States of America as represented by the …, priority 1989, dated 1991)
Like-named read-outs stand apart in the source and are kept apart here. Where a SMILES comes first, the peptide text is derived from it.

Legend:
[1] = tested on: ligated H. zea females; experiment: Pheromone production bioassay: injection into ligated H. zea females; assay type: in vivo, Heliothis zea; details: for ng/Female H. zea (Z)-11-Hexadecenal: injected into ligated females
[2] = tested on: ligated females of six other species of moths
Experimental: (§1) Bioassay procedure is described in Example 6. Each female was injected
(§2) of the synthetic peptide in 10 microliter of buffer. The major component

[3] = tested on: M. sexta (tobacco hornworm); details: (E,Z)-10,12-hexadecadienal per female ± SE, N = 5; 5 pmoles injected
Experimental: as §1, §2
(§3) Dose response of the peptide of Formula I, wherein X is Asp and Y is Leu(NH2): the peptide was dissolved in sucrose phosphate buffer and injected into ligated 3-day-old females during scotophase. Pheromone was extracted 3 hr after injection and quantified by capillary gas chromatography.

[4] = tested on: S. frugiperda (fall armyworm); details: per female ± SE, N = 5; 5 pmoles injected
Experimental: as §1, §2, §3

[5] = tested on: L. dispar (gypsy moth); details: cis-2-decyl-3-(5-methylhexyl) oxirane per female ± SE, N = 5; 5 pmoles injected
Experimental: as §1, §2, §3

[6] = tested on: O. nubilalis (European corn borer); details: (E)-11-tetradecen-1-ol acetate per female ± SE, N = 5; 5 pmoles injected
Experimental: as §1, §2, §3

[7] = tested on: D. nitidalis (pickle worm); details: (E)-11-hexadecenal per female ± SE, N = 5; 5 pmoles injected
Experimental: as §1, §2, §3

[8] = tested on: H. virescens (tobacco budworm); details: (Z)-11-hexadecenal per female ± SE, N = 5; 5 pmoles injected
Experimental: as §1, §2, §3

[9] = tested on: third instar H. zea larvae
Experimental: Peptide of the Formula I, wherein X is Asp and Y is Leu(NH2) was dissolved in sucrose phosphate buffer and serially diluted to obtain 0.1, 1.0, 10, 100, and 1000 pmoles/5 μL of buffer. The peptide was then injected into third instar H. zea larvae the day before their moult to fourth instar. Observations for melanization (intense black color formation) were recorded after 48 hr.

| SMILES | ng/Female H. zea (Z)-11-Hexadecenal ([1]; Dose 1.0 pMole) | ng/Female H. zea (Z)-11-Hexadecenal ([1]; Dose 10.0 pMole) | ng/Female H. zea (Z)-11-Hexadecenal ([1]; Dose 100.0 pMole) | pheromone production at doses greater than 4.0 pmoles ([1]; doses greater than 4.0 pmoles) | production of the sex pheromone ([1]; injected into ligated H. zea females) | quantity of pheromone produced relative to that found in normal females ([2]; in two of the six species) | production of their respective pheromones ([2]; injected into ligated females of six other species) | Quantity of the Major Component in the Pheromone of Hex-PBAN injected Female [3] | Quantity of the Major Component in the Pheromone of Hex-PBAN injected Female [4] | Quantity of the Major Component in the Pheromone of Hex-PBAN injected Female [5] | Quantity of the Major Component in the Pheromone of Hex-PBAN injected Female [6] | Quantity of the Major Component in the Pheromone of Hex-PBAN injected Female [7] | Quantity of the Major Component in the Pheromone of Hex-PBAN injected Female [8] | melanization ([9]; 10 pmole dose, recorded after 48 hr) | melanization ([9]; 10 pmoles/larva, after the moult to the fourth instar) | mortality ([9]; 10 pmoles/larva, associated with melanization) | ng/Female H. zea (Z)-11-Hexadecenal ([1]; Dose 1000.0 pMole) |
| --- | --- | --- | --- | --- | --- | --- | --- | --- | --- | --- | --- | --- | --- | --- | --- | --- | --- |
| CC[C@H](C)[C@H](NC(=O)[C@H](CCC(N)=O)NC(=O)[C@H](CCC(=O)O)NC(=O)[C@@H]1CCCN1C(=O)[C@H](CC(=O)O)NC(=O)[C@H](CCC(N)=O)NC(=O)[C@H](CCCNC(=N)N)NC(=O)[C@H](Cc1ccc(O)cc1)NC(=O)[C@H](CCSC)NC(=O)[C@H](CCC(=O)O)NC(=O)[C@H](CCC(N)=O)NC(=O)[C@H](CC(=O)O)NC(=O)[C@H](C)NC(=O)[C@@H]1CCCN1C(=O)[C@@H](NC(=O)[C@H](C)NC(=O)[C@@H]1CCCN1C(=O)[C@H](CCSC)NC(=O)[C@H](CC(=O)O)NC(=O)[C@H](CC(=O)O)NC(=O)[C@H](CO)NC(=O)[C@@H](N)CC(C)C)[C@@H](C)O)C(=O)N[C@@H](CC(N)=O)C(=O)N[C@@H](CO)C(=O)N[C@@H](CCCNC(=N)N)C(=O)N[C@H](C(=O)N[C@@H](CCCCN)C(=O)N[C@@H](Cc1ccc(O)cc1)C(=O)N[C@@H](Cc1ccccc1)C(=O)N[C@@H](CO)C(=O)N1CCC[C@H]1C(=O)N[C@@H](CCCNC(=N)N)C(=O)N[C@@H](CC(C)C)C(N)=O)[C@@H](C)O [Compound 3] (H-LSDDMPATPADQEMYRQDPEQINSRTKYFSPRL-NH2) | 1.7 ng/Female | 97.1 ng/Female | 145.7 ng/Female |  |  |  |  |  |  |  |  |  |  |  |  |  |  |
| CC[C@H](C)[C@H](NC(=O)[C@H](CCC(N)=O)NC(=O)[C@H](CCC(=O)O)NC(=O)[C@@H]1CCCN1C(=O)[C@H](CC(=O)O)NC(=O)[C@H](CCC(N)=O)NC(=O)[C@H](CCCNC(=N)N)NC(=O)[C@H](Cc1ccc(O)cc1)NC(=O)[C@H](CCSC)NC(=O)[C@H](CCC(=O)O)NC(=O)[C@H](CCC(N)=O)NC(=O)[C@H](CC(=O)O)NC(=O)[C@H](C)NC(=O)[C@@H]1CCCN1C(=O)[C@@H](NC(=O)[C@H](C)NC(=O)[C@@H]1CCCN1C(=O)[C@H](CCSC)NC(=O)[C@H](CC(=O)O)NC(=O)[C@H](CC(=O)O)NC(=O)[C@H](CO)NC(=O)[C@@H](N)CC(C)C)[C@@H](C)O)C(=O)N[C@@H](CC(=O)O)C(=O)N[C@@H](CO)C(=O)N[C@@H](CCCNC(=N)N)C(=O)N[C@H](C(=O)N[C@@H](CCCCN)C(=O)N[C@@H](Cc1ccc(O)cc1)C(=O)N[C@@H](Cc1ccccc1)C(=O)N[C@@H](CO)C(=O)N1CCC[C@H]1C(=O)N[C@@H](CCCNC(=N)N)C(=O)N[C@@H](CC(C)C)C(N)=O)[C@@H](C)O [Compound 1] (H-LSDDMPATPADQEMYRQDPEQIDSRTKYFSPRL-NH2) | 4.6 ng/Female | 128.2 ng/Female | 179.9 ng/Female | significant decrease | normal production | 6-7 times | significant amounts | 65.4 ± 11.9 ng | 42.9 ± 12.2 ng | 2.5 ± 0.4 ng | 6.7 ± 1.1 ng | 49.2 ± 16.3 ng | 189.2 ± 12.2 ng | 100% | intense melanization | significant mortality |  |
| CC[C@H](C)[C@H](NC(=O)[C@H](CCC(N)=O)NC(=O)[C@H](CCC(=O)O)NC(=O)[C@@H]1CCCN1C(=O)[C@H](CC(=O)O)NC(=O)[C@H](CCC(N)=O)NC(=O)[C@H](CCCNC(=N)N)NC(=O)[C@H](Cc1ccc(O)cc1)NC(=O)[C@H](CCSC)NC(=O)[C@H](CCC(=O)O)NC(=O)[C@H](CCC(N)=O)NC(=O)[C@H](CC(=O)O)NC(=O)[C@H](C)NC(=O)[C@@H]1CCCN1C(=O)[C@@H](NC(=O)[C@H](C)NC(=O)[C@@H]1CCCN1C(=O)[C@H](CCSC)NC(=O)[C@H](CC(=O)O)NC(=O)[C@H](CC(=O)O)NC(=O)[C@H](CO)NC(=O)[C@@H](N)CC(C)C)[C@@H](C)O)C(=O)N[C@@H](CC(N)=O)C(=O)N[C@@H](CO)C(=O)N[C@@H](CCCNC(=N)N)C(=O)N[C@H](C(=O)N[C@@H](CCCCN)C(=O)N[C@@H](Cc1ccc(O)cc1)C(=O)N[C@@H](Cc1ccccc1)C(=O)N[C@@H](CO)C(=O)N1CCC[C@H]1C(=O)N[C@@H](CCCNC(=N)N)C(=O)N[C@@H](CC(C)C)C(=O)O)[C@@H](C)O [Compound 4] (H-LSDDMPATPADQEMYRQDPEQINSRTKYFSPRL-OH) |  | 0.9 ng/Female | 3.2 ng/Female |  |  |  |  |  |  |  |  |  |  |  |  |  | 112.1 ng/Female |
